In patent US8852664B2, “Neo-menthyl derivatives as flavor materials” (Symrise AG, priority 2008, dated 2014):

Experiments:
[1] = Flavor profile determined by a trained panel of at least 5 testers; type: in vivo; details: trained panel of at least 5 testers, tasting against a 0.5% strength salt and a 0.5% strength sugar solution
Procedure: The flavor profiles were determined by a trained panel of at least 5 testers by tasting against a 0.5% strength salt and a 0.5% strength sugar solution

[2] = Flavor comparison in chicken aroma base (FIG. 2), panel of trained testers; type: in vivo; details: 1 ppm in chicken aroma base vs base with 0.2 wt. % standard aroma (containing MSG)
Excerpt: Here, a base for a chicken aroma is compared with (i) such a base having 1 ppm of the pure-enantiomer compound 1-((1S,2S,5R)-2-isopropyl-5-methyl-cyclohexyl)-3-(3-methoxy-propyl)-urea (1) added and (ii) with such a base having 0.2 wt. % of a standard aroma (containing MSG) added.
The flavor of the chicken base (solid dark line) was compared with the aid of tasting by a panel of trained testers with the flavor firstly of such a base to which 1 ppm of 1-((1S,2S,5R)-2-Isopropyl-5-methyl-cyclohexyl)-3-(3-methoxy-propyl)-urea (1) was added (solid light line), and secondly such a base to which 0.2 wt. % of a standard chicken aroma containing sodium glutamate was added (dotted line).
The testers evaluated the strength of the test directions indicated, in each case by specifying marks on a scale of from 0 (no corresponding flavor) to 8 (very strong corresponding flavor). The average values of the respective marks are represented.

## COCCCNC(=O)N[C@H]1C[C@H](C)CC[C@H]1C(C)C [(1), 1-((1S,2S,5R)-2-isopropyl-5-methyl-cyclohexyl)-3-(3-methoxy-propyl)-urea]
[1]
  Flavor Profile: salty, long-lasting, umami, no by notes
[2]
  flavor character compared with standard aroma containing MSG: genuine MSG-like character
